Legend:
[1] = molecular target: VEGFR2, unphosphorylated (Homo sapiens (Human), UniProt P35968); test: VEGFR ADP GLO Assay; assay type: biochemical
[2] = molecular target: His6-TEV-PDGFRβ (557-1016) (Homo sapiens (Human), UniProt P09619); test: PDGFRβ HTRF Assay; assay type: biochemical; conditions: read-out: PDGFR HTRF IC50
How it was run: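 HTRF KinEASE-TK readout (665/620 nm ratio) of TK-biotin substrate phosphorylation by His-tagged PDGFRβ kinase domain. Enzyme and inhibitor preincubated 30 min, then ATP/substrate added for 3 h at room temperature before 60 min EDTA quench/detection.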

[3] = molecular target: Tb-labeled inactive PDGFRβ (Homo sapiens (Human), UniProt P09619); test: PDGFRβ LanthaScreen Assay; assay type: binding; conditions: read-out: PDGFR Lantha IC50
Tb-labeled inactive PDGFRβ, sequence (P09619 33-1106): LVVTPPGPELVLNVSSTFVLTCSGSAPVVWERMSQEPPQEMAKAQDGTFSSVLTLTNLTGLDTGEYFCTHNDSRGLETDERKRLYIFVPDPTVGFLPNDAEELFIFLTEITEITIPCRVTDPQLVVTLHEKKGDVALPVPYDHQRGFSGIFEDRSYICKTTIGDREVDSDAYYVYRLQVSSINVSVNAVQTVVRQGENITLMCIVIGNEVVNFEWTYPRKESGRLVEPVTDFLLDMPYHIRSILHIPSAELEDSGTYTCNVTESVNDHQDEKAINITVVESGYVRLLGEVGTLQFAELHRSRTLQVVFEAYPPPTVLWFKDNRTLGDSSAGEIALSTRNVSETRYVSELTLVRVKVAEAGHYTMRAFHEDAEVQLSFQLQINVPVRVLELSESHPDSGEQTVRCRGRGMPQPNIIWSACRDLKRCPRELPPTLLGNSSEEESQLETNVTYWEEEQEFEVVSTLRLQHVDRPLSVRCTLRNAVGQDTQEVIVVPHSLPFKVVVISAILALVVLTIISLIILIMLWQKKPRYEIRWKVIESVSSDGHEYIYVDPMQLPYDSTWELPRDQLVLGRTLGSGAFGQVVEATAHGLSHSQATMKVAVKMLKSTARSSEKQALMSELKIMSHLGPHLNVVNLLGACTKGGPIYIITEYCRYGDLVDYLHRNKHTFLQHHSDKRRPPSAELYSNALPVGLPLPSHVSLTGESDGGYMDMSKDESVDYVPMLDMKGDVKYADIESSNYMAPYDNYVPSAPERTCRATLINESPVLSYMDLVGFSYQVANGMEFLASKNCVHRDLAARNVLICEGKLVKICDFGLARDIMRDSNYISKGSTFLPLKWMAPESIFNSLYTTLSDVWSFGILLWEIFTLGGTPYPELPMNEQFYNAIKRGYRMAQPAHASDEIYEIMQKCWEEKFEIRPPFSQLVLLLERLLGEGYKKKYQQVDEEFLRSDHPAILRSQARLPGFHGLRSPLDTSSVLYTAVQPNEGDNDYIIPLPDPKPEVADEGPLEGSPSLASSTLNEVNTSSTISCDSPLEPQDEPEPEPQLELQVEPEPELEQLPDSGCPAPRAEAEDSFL

VEGFR2, unphosphorylated, sequence (P35968 20-1356): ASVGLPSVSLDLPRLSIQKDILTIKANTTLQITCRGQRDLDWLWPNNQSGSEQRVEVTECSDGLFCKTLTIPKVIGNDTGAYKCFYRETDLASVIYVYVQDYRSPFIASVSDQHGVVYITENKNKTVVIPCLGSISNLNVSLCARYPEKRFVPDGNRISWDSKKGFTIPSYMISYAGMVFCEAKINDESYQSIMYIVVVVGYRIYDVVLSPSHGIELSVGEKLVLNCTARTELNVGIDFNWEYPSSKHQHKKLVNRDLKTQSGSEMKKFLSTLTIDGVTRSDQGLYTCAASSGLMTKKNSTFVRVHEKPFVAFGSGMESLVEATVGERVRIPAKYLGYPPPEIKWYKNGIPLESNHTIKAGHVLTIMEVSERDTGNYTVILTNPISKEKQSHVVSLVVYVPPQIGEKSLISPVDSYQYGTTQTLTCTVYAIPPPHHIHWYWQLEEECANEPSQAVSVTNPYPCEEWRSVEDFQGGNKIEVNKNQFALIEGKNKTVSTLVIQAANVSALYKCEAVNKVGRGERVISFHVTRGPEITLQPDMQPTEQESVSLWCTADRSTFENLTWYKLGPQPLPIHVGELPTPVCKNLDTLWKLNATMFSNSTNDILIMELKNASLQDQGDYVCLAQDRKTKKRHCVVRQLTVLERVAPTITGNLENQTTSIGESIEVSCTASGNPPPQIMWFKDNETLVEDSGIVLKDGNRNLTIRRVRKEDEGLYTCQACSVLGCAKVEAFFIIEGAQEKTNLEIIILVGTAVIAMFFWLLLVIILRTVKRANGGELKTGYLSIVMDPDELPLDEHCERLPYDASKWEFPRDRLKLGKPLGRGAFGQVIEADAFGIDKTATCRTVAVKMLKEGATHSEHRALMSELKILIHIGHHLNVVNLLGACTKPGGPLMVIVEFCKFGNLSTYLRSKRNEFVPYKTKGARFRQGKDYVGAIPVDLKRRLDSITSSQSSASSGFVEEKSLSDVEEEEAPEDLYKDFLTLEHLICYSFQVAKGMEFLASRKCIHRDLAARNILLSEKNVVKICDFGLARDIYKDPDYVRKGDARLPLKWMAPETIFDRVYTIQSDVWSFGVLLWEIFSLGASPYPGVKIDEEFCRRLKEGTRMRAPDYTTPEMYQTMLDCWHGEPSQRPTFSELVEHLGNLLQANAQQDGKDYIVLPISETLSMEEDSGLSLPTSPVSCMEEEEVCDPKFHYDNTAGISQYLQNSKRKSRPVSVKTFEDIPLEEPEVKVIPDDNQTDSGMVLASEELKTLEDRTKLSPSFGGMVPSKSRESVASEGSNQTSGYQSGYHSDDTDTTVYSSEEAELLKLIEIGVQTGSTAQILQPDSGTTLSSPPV
His6-TEV-PDGFRβ (557-1016), sequence (P09619 557-1016): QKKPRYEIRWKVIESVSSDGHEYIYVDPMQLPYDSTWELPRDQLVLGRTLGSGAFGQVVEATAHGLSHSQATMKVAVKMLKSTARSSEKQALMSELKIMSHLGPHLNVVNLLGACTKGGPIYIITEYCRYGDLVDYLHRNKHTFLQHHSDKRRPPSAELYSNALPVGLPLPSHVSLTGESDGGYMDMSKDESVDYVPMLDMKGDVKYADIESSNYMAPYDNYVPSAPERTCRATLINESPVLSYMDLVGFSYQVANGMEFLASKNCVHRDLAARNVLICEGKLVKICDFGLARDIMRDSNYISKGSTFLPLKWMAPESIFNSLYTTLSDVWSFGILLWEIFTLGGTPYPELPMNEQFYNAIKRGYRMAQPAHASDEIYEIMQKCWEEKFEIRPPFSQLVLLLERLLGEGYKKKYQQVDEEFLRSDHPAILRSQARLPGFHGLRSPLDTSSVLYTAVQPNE

SMILES	IC50 [1]	IC50 [2]	IC50 [3]
Cc1cc(C(=O)NCCN2CCC(CO)CC2)sc1NC(=O)c1cnn2cc(-c3cnn(C)c3)sc12 [Example 193, N-(5-((2-(4-(hydroxymethyl)piperidin-1-yl)ethyl)carbamoyl)-3-methylthiophen-2-yl)-2-(1-methyl-1H-pyrazol-4-yl)pyrazolo[5,1-b]thiazole-7-carboxamide]	> 7500 nM	321 nM	> 3000 nM
Cc1ncc(C(=O)NCCN2CCCC2(C)C)cc1NC(=O)c1cnn2cc(-c3cccc4c3cnn4C)sc12 [Example 240, N-(5-((2-(2,2-dimethylpyrrolidin-1-yl)ethyl)carbamoyl)-2-methylpyridin-3-yl)-2-(1-methyl-1H-indazol-4-yl)pyrazolo[5,1-b]thiazole-7-carboxamide]	> 2500 nM	0.3 nM	2 nM
Cc1ncc(C(=O)NCCN2CCCC2)cc1NC(=O)c1cnn2cc(-c3cnn(C)c3C)sc12 [Example 220, 2-(1,5-Dimethyl-1H-pyrazol-4-yl)-N-(2-methyl-5-((2-(pyrrolidin-1-yl)ethyl)carbamoyl)pyridin-3-yl)pyrazolo[5,1-b]thiazole-7-carboxamide]	> 7500 nM	0.2 nM	5 nM
Cc1ncc(NC(=O)CN2CCC3(COC3)C2)cc1NC(=O)c1cnn2cc(-c3cnn(C)c3)sc12 [Example 18, N-(5-(2-(2-oxa-6-azaspiro[3.4]octan-6-yl)acetamido)-2-methylpyridin-3-yl)-2-(1-methyl-1H-pyrazol-4-yl)pyrazolo[5,1-b]thiazole-7-carboxamide]	> 7500 nM	0.6 nM	9.5 nM
Cc1ncc(C(=O)NCCN2CCCC23CCC3)cc1NC(=O)c1cnn2cc(-c3cnn(C)c3C)sc12 [Example 209, N-(5-((2-(5-azaspiro[3.4]octan-5-yl)ethyl)carbamoyl)-2-methyl-pyridin-3-yl)-2-(1,5-dimethyl-1H-pyrazol-4-yl)pyrazolo[5,1-b]thiazole-7-carboxamide]	> 7500 nM	0.3 nM	2.2 nM
COc1ncccc1-c1cn2ncc(C(=O)Nc3cc(C(=O)NCCN4CCCC4)cnc3C)c2s1 [Example 229, 2-(2-Methoxypyridin-3-yl)-N-(2-methyl-5-((2-(pyrrolidin-1-yl)ethyl)carbamoyl)pyridin-3-yl)pyrazolo[5,1-b]thiazole-7-carboxamide]	> 833 nM	0.2 nM	1.6 nM
Cc1ncc(NC(=O)OCCN2CCCC2(C)C)cc1NC(=O)c1cnn2cc(-c3cnn(C)c3)sc12 [Example 247, 2-(2,2-dimethylpyrrolidin-1-yl)ethyl (6-methyl-5-(2-(1-methyl-1H-pyrazol-4-yl)pyrazolo[5,1-b]thiazole-7-carboxamido)pyridin-3-yl)carbamate]	> 7500 nM	0.6 nM	19.3 nM
Cc1cc(C(=O)NCCN2CCCC2(C)C)sc1NC(=O)c1cnn2cc(-c3cncnc3)sc12 [Example 185, N-(5-((2-(2,2-dimethylpyrrolidin-1-yl)ethyl)carbamoyl)-3-methylthiophen-2-yl)-2-(pyrimidin-5-yl)pyrazolo[5,1-b]thiazole-7-carboxamide]	> 7500 nM	704 nM	> 3000 nM
Cc1ncc(C(=O)NCCN2CC3CCC2C3)cc1NC(=O)c1cnn2cc(-c3cn(C)nc3C)sc12 (stereo not drawn) [Example 212, N-(5-((2-(2-azabicyclo[2.2.1]heptan-2-yl)ethyl)carbamoyl)-2-methylpyridin-3-yl)-2-(1,3-dimethyl-1H-pyrazol-4-yl)pyrazolo[5,1-b]thiazole-7-carboxamide]	> 7500 nM	0.3 nM	1.3 nM
Cc1ncc(NC(=O)OCCN2CC3CCC2C3)cc1NC(=O)c1cnn2cc(-c3cnn(C)c3)sc12 (stereo not drawn) [Example 250, 2-(2-azabicyclo[2.2.1]heptan-2-yl)ethyl (6-methyl-5-(2-(1-methyl-1H-pyrazol-4-yl)pyrazolo[5,1-b]thiazole-7-carboxamido)pyridin-3-yl)carbamate]	> 7500 nM	1.4 nM	75.2 nM
